Assay results: patent US5863913A, “Aromatic compound and pharmaceutical composition” (Kureha Chemical Industry Co., Ltd., priority 1996, dated 1999)

Key:
[1] = biological target: T1, angiotensin II receptor subtype 1 (AT1) (Oryctolagus cuniculus, UniProt P34976); experiment: Binding to receptors: angiotensin II receptor subtype 1 (AT1); parameters: species or system rabbits (adrenal glands); settings: rabbit adrenal glands, tracer 3H-angiotensin II
T1 construct: receptor : from adrenal glands in rabbits; from tissue; host or cells: rabbit adrenal glands
T1 sequence (P34976 1-359): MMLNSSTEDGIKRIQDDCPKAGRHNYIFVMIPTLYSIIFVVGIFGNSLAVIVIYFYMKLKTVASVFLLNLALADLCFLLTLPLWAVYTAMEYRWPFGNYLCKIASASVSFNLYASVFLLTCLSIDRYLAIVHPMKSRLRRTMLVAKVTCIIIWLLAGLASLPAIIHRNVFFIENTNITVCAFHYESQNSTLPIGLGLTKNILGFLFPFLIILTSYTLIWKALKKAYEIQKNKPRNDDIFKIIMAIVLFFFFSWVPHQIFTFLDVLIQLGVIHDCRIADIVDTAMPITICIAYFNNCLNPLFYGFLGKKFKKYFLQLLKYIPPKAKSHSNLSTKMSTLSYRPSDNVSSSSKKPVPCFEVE
Protocol: In this Example, the affinity to the angiotensin II receptor subtype 1 or subtype 2 was evaluated by a binding assay in accordance with the method described in Biochem. Pharmacol., 33, 4057-4062 (1984).
Specifically, the measurement of the total binding in the presence of each drug was performed as follows:
A mixture (final volume=0.25 ml) of a drug in a given concentration (the drug was dissolved in DMSO, and diluted to a double volume with a buffer attached to a drug discovery system to prepare a sample for the assay; 0.025 ml), a tracer (0.025 ml), and receptors (0.2 ml) was incubated [in the case of the angiotensin II receptor subtype 1 (AT1), at room temperature for 3 hours, and in the case of the subtype 2 (AT2), at 37° C. for 1 hour]. Then, the reaction mixture was filtered with suction (GF/C filter was used in AT1, and GF/B filter was used in AT2). The filter papers after filtration with suction (the tracer bound to the receptors) were counted by a γ-well counter (ARC-500, Aloka). The non-specific bindings were measured by repeating the above method, except that a large excess amount of a displacer was added. The specific binding of the drug in the given concentration was calculated by subtracting the non-specific binding from the total binding, respectively.
receptor : from adrenal glands in rabbits
tracer : ^3 Hangiotensin II

ICR female mice = experiment: Acute toxicity, single oral dose in mice; settings: mouse, in vivo
Protocol: The aromatic compounds of the formula (I) according to the present invention were orally administered to mice at the dose of 500 mg/kg, but no fatalities were observed over a period of one week.
Five-week-old ICR female mice (5 mice per group) were bred for acclimation for a week. Then, the compounds of the present invention were dissolved in water, and orally administered to the mice in a single dosage (500 mg/kg).

[2] = tested on: kidney disease model rats; experiment: Renal function indicatory value in kidney disease model rats; assay type: in vivo, Sprague-Dawley female rats; settings: 20 mg/kg/day with drinking water, six weeks
Protocol: (§1) The kidney disease model rats were prepared by a ligature of branches of renal artery in accordance with a conventional method. Namely, the left hilum renalis of Sprague-Dawley female rats was exposed under anesthesia, and one of four secondary branches of the renal artery was left unligated, while the remaining three branches were ligated, respectively. After a week, the hilum renalis (artery, vein, and ureter) of the right kidney were further ligated to thereby prepare rats whose renal function was lowered to approximately 1/8 of the normal function. Each group consisted of eight rats. The drugs to be tested (20 mg/kg) were administered to each administering group, and only water was administered to a control group. Two days after the administration, the systolic blood pressure was measured by the tail cuff method using a blood pressure measuring apparatus (UR5000; Ueda).
The rats in each group were allowed to freely take up food. […] To the rats in the control group, only water was administered every day. After six weeks, 0.2 ml of blood was collected from the carotid artery of the rats under anesthesia, and centrifuged to obtain serum. Using 25 μl of the serum, the serum creatinine (Scr) was measured by a creatinine analytical instrument (Beckman). Using 10 μl of the serum, the blood urea nitrogen (BUN) was measured by a BUN analytical instrument (Beckman). The creatinine clearance was evaluated as follows:
After the serum creatinine measurement, rats were placed in urinary metabolic cages for 24 hours to collect urine. A urinary creatine concentration (Ucr) was measured by a creatinine analytical instrument, and a total volume of urination (Uvol) was also measured. The creatinine clearance (CCr) was calculated by the following formula: [formula]

[3] = Oral absorption (amount of compound in rat serum by HPLC, area under curve); assay type: in vivo, Sprague-Dawley female rats; settings: single dosage 160 mg/kg in water, 0.5 to 24 hours, average of 3 rats
Protocol: Twelve-week-old Sprague-Dawley female rats (3 rats per group) were bred for acclimation for a week. Then, the compounds of the present invention and a reference substrate were dissolved in water, and orally administered to the rats in a single dosage (160 mg/kg). After 0.5 hour, 1 hour, 2 hours, 4 hours, 6 hours, 8 hours, and 24 hours, the amounts of each compound (ng) per 1 ml of serum were measured using HPLC. Curves were obtained from the relation between an elapsed time after administration and the amount of the compound in serum at each elapsed time, respectively, and an average of the areas under the curves was calculated.
As a reference substance, Compound No. 184 disclosed in Japanese Unexamined Patent Publication (Kokai) No. 8-48651 was used. Compound No. 184 corresponds to the compound of the formula (I) wherein R^1 =nBu, A=N, Z=C, R^2 =CO, R^3 =NC4 H8 O, R^4 =H, R^5 =Me, and R^6 =Me.

[4] = tested on: kidney disease model rats; experiment: Action to lower blood pressure in kidney disease model rats (tail cuff); assay type: in vivo, Sprague-Dawley female rats; settings: systolic, average of 8 rats, 20 mg/kg with drinking water, two days after administration; control 210
Protocol: as §1, with “The compounds of the present invention and the reference substance were administered with drinking water to kidney disease model rats, and the action of lowering the blood pressure was observed. The kidney” for “The kidney”

[5] = tested on: kidney disease model rats; experiment: Survival time of kidney diseased animals; assay type: in vivo, Sprague-Dawley female rats; settings: 20 mg/kg/day with drinking water, observation period eight weeks (upper limit); control 5.0
Protocol: as §1, with “The compounds of the present invention and the reference substance were administered with drinking water to kidney disease model rats, and the action of lowering the blood pressure was observed. The kidney” for “The kidney”
The kidney disease model rats were prepared as in Example 54. Twenty-two groups (8 rats per group) were prepared in a manner such that there was no major difference between the groups in the serum creatinine value and the blood urea nitrogen value indicating renal function. The rats in each group were allowed to freely take up food. […] To the rats in the control group, only water was administered every day. If kidney diseases are aggravated, the rat will die of uremia. Thus, the survival time was observed as a comprehensive indication of the improvement of the effect on the kidney diseases. The observation period was eight weeks. Thus if all rats survived, the average survival time is eight weeks, and is an upper limit.

CCCCC(=O)N(Cc1ccc(C(=O)O)cc1)c1cc(C(=O)N2CCN(CCC)CC2)ccc1N(C)C [Compound No. 11, 4-dimethylamino-3-N-[[(4-carboxyphenyl)methyl]valeramido]benzoic acid 4'-n-propylpiperazide]
inhibition at 100 µM [1]: 0% | Number of deaths/number of survivals (ICR female mice): 0/5 | Creatinine clearance ([2]; 24 hours urine, control 0.22): 0.42 mL/min | Creatinine ([2]; serum, control 2.0): 1.2 mg/dL | Blood urea nitrogen ([2]; serum, control 100): 62 mg/dL | AUC at 24 h [3]: 76000 ng·h/mL | Blood Pressure [4]: 204 mmHg | Average survival time [5]: 7.3 weeks
